# Biological target: T1, hNK2 receptor (Homo sapiens, UniProt P21452)
# T1 construct: host or cells: CHO cells
# T1 sequence (P21452 1-398): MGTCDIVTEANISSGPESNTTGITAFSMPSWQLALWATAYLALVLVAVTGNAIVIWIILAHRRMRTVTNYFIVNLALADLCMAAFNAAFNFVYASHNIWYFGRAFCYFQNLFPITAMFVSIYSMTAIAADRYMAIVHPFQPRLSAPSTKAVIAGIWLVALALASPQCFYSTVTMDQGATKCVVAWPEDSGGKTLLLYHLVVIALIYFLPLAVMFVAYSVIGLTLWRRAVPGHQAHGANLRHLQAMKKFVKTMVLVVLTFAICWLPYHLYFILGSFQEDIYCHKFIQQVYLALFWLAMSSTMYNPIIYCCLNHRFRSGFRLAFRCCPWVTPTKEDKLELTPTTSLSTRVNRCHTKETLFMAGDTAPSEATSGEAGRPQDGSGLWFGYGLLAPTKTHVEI
# Test: Radio-ligand ([125I]-NKA) receptor binding inhibitory activity using membrane fraction of hNK2 receptor-expressing CHO cell
# Details: membrane fraction of hNK2 receptor-expressing CHO cells, 25° C., 30 min
# Method in brief: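 Membranes from hNK2-expressing CHO cells (20 μg/mL suspension) incubated with test compound and [125I]-NKA ([…] solution as added) in Tris-HCl pH 7.4 with BSA, protease inhibitors, 3 mM MnCl2, 25 °C, 30 min. Bound radioactivity by GF/C filtration and scintillation; inhibition expressed relative to specific binding (total minus unlabeled-NKA non-specific).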
row,IC50 [nM],SMILES
1,< 1,"Cc1ccc(NC(=O)N[C@@H]2CCCC[C@@H]2C(=O)N2CC[C@@H]3[C@H](c4ccccc4)Nc4ccccc4[C@@H]32)cc1 [Example 138, N-(4-Methylphenyl)-N′-((1R,2S)-2-{[(3aR,4R,9bR)-4-phenyl-2,3,3a,4,5,9b-hexahydro-1H-pyrrolo[3,2-c]quinolin-1-yl]carbonyl}cyclohexyl)urea]"
2,< 1,"O=C(Nc1ccc(F)cc1)N[C@@H]1CCCC[C@@H]1C(=O)N1CC[C@@H]2[C@H](c3ccccc3)Nc3ccccc3[C@@H]21 [Example 139, N-(4-Fluorophenyl)-N′-((1R,2S)-2-{[(3aR,4R,9bR)-4-phenyl-2,3,3a,4,5,9b-hexahydro-1H-pyrrolo[3,2-c]quinolin-1-yl]carbonyl}cyclohexyl)urea]"
3,< 10,"O=C(Nc1ccc(C(F)(F)F)cc1)N[C@@H]1CCCC[C@@H]1C(=O)N1CC[C@@H]2[C@H](c3ccccc3)Nc3ccccc3[C@@H]21 [Example 140, N-((1R,2S)-2-{[(3aR,4R,9bR)-4-Phenyl-2,3,3a,4,5,9b-hexahydro-1H-pyrrolo[3,2-c]quinolin-1-yl]carbonyl}cyclohexyl)-N′-[4-(trifluoromethyl)phenyl]urea]"
4,< 10,"O=C(Nc1cccc(Cl)c1)N[C@@H]1CCCC[C@@H]1C(=O)N1CC[C@@H]2[C@H](c3ccccc3)Nc3ccccc3[C@@H]21 [Example 141, N-(3-Chlorophenyl)-N′-((1R,2S)-2-{[(3aR,4R,9bR)-4-phenyl-2,3,3a,4,5,9b-hexahydro-1H-pyrrolo[3,2-c]quinolin-1-yl]carbonyl}cyclohexyl)urea]"
5,< 10,"O=C(NCc1ccccc1)N[C@@H]1CCCC[C@@H]1C(=O)N1CC[C@@H]2[C@H](c3ccccc3)Nc3ccccc3[C@@H]21 [Example 143, N-Benzyl-N′-((1R,2S)-2-{[(3aR,4R,9bR)-4-phenyl-2,3,3a,4,5,9b-hexahydro-1H-pyrrolo[3,2-c]quinolin-1-yl]carbonyl}cyclohexyl)urea]"
6,< 10,"COc1ccc(CNC(=O)N[C@@H]2CCCC[C@@H]2C(=O)N2CC[C@@H]3[C@H](c4ccccc4)Nc4ccccc4[C@@H]32)cc1 [Example 144, N-(4-Methoxybenzyl)-N′-((1R,2S)-2-{[(3aR,4R,9bR)-4-phenyl-2,3,3a,4,5,9b-hexahydro-1H-pyrrolo[3,2-c]quinolin-1-yl]carbonyl}cyclohexyl)urea]"
7,< 10,"O=C(NCc1ccc(F)cc1)N[C@@H]1CCCC[C@@H]1C(=O)N1CC[C@@H]2[C@H](c3ccccc3)Nc3ccccc3[C@@H]21 [Example 145, N-(4-Fluorobenzyl)-N′-((1R,2S)-2-{[(3aR,4R,9bR)-4-phenyl-2,3,3a,4,5,9b-hexahydro-1H-pyrrolo[3,2-c]quinolin-1-yl]carbonyl}cyclohexyl)urea]"
8,< 10,"O=C(NCCc1ccccc1)N[C@@H]1CCCC[C@@H]1C(=O)N1CC[C@@H]2[C@H](c3ccccc3)Nc3ccccc3[C@@H]21 [Example 146, N-(2-Phenylethyl)-N′-((1R,2S)-2-{[(3aR,4R,9bR)-4-phenyl-2,3,3a,4,5,9b-hexahydro-1H-pyrrolo[3,2-c]quinolin-1-yl]carbonyl}cyclohexyl)urea]"
9,< 10,"N#Cc1ccc(NC(=O)N[C@@H]2CCCC[C@@H]2C(=O)N2CC[C@@H]3[C@H](c4ccccc4)Nc4ccccc4[C@@H]32)cc1 [Example 147, N-(4-Cyanophenyl)-N′-((1R,2S)-2-{[(3aR,4R,9bR)-4-phenyl-2,3,3a,4,5,9b-hexahydro-1H-pyrrolo[3,2-c]quinolin-1-yl]carbonyl}cyclohexyl)urea]"
10,< 1,"O=C(Nc1ccc2c(c1)OCO2)N[C@@H]1CCCC[C@@H]1C(=O)N1CC[C@@H]2[C@H](c3ccccc3)Nc3ccccc3[C@@H]21 [Example 148, N-1,3-Benzodioxol-5-yl-N′-((1R,2S)-2-{[(3aR,4R,9bR)-4-phenyl-2,3,3a,4,5,9b-hexahydro-1H-pyrrolo[3,2-c]quinolin-1-yl]carbonyl}cyclohexyl)urea]"

# Second part, the molecule before the results:
row,SMILES,IC50 [nM]
1,"O=C(N[C@@H]1CCCC[C@@H]1C(=O)N1CC[C@@H]2[C@H](c3ccccc3)Nc3ccccc3[C@@H]21)c1ccc(Cl)cc1 [Example 114, 4-Chloro-N-((1R,2S)-2-{[(3aR,4R,9bR)-4-phenyl-2,3,3a,4,5,9b-hexahydro-1H-pyrrolo[3,2-c]quinolin-1-yl]carbonyl}cyclohexyl)benzamide]",< 10
2,"COC(=O)CCCCC(=O)N[C@@H]1CCCC[C@@H]1C(=O)N1CC[C@@H]2[C@H](c3ccccc3)Nc3ccccc3[C@@H]21 [Example 116, Methyl 6-oxo-6-[((1R,2S)-2-{[(3aR,4R,9bR)-4-phenyl-2,3,3a,4,5,9b-hexahydro-1H-pyrrolo[3,2-c]quinolin-1-yl]carbonyl}cyclohexyl)amino]hexanoate]",< 10
3,"O=C(CCCCCN1CCOCC1)N[C@@H]1CCCC[C@@H]1C(=O)N1CC[C@@H]2[C@H](c3ccccc3)Nc3ccccc3[C@@H]21 [Example 117, 6-Morpholin-4-yl-N-((1R,2S)-2-{[(3aR,4R,9bR)-4-phenyl-2,3,3a,4,5,9b-hexahydro-1H-pyrrolo[3,2-c]quinolin-1-yl]carbonyl}cyclohexyl)hexanamide]",< 10
4,"O=C(CCCCCO)N[C@@H]1CCCC[C@@H]1C(=O)N1CC[C@@H]2[C@H](c3ccccc3)Nc3ccccc3[C@@H]21 [Example 119, 6-Hydroxy-N-((1R,2S)-2-{[(3aR,4R,9bR)-4-phenyl-2,3,3a,4,5,9b-hexahydro-1H-pyrrolo[3,2-c]quinolin-1-yl]carbonyl}cyclohexyl)hexanamide]",< 10
5,"O=C(N[C@@H]1CCCC[C@@H]1C(=O)N1CC[C@@H]2[C@H](c3ccccc3)Nc3ccccc3[C@@H]21)c1ccc(CO)cc1 [Example 120, 4-(Hydroxymethyl)-N-((1R,2S)-2-{[(3aR,4R,9bR)-4-phenyl-2,3,3a,4,5,9b-hexahydro-1H-pyrrolo[3,2-c]quinolin-1-yl]carbonyl}cyclohexyl)benzamide]",< 10
6,"O=C(N[C@@H]1CCCC[C@@H]1C(=O)N1CC[C@@H]2[C@H](c3ccccc3)Nc3ccccc3[C@@H]21)c1cnccn1 [Example 127, N-((1R,2S)-2-{[(3aR,4R,9bR)-4-Phenyl-2,3,3a,4,5,9b-hexahydro-1H-pyrrolo[3,2-c]quinolin-1-yl]carbonyl}cyclohexyl)pyrazine-2-carboxamide]",< 10
7,"O=C(/C=C/c1c[nH]cn1)N[C@@H]1CCCC[C@@H]1C(=O)N1CC[C@@H]2[C@H](c3ccccc3)Nc3ccccc3[C@@H]21 [Example 128, (2E)-3-(1H-Imidazol-4-yl)-N-((1R,2S)-2-{[(3aR,4R,9bR)-4-phenyl-2,3,3a,4,5,9b-hexahydro-1H-pyrrolo[3,2-c]quinolin-1-yl]carbonyl}cyclohexyl)acrylamide]",< 10
8,"O=C(N[C@@H]1CCCC[C@@H]1C(=O)N1CC[C@@H]2[C@H](c3ccccc3)Nc3ccccc3[C@@H]21)c1ncc[nH]1 [Example 129, N-((1R,2S)-2-{[(3aR,4R,9bR)-4-Phenyl-2,3,3a,4,5,9b-hexahydro-1H-pyrrolo[3,2-c]quinolin-1-yl]carbonyl}cyclohexyl)-1H-imidazole-2-carboxamide]",< 10
9,"Cn1ccnc1C(=O)N[C@@H]1CCCC[C@@H]1C(=O)N1CC[C@@H]2[C@H](c3ccccc3)Nc3ccccc3[C@@H]21 [Example 132, 1-Methyl-N-((1R,2S)-2-{[(3aR,4R,9bR)-4-phenyl-2,3,3a,4,5,9b-hexahydro-1H-pyrrolo[3,2-c]quinolin-1-yl]carbonyl}cyclohexyl)-1H-imidazole-2-carboxamide]",< 10
10,"O=C(N[C@@H]1CCCC[C@@H]1C(=O)N1CC[C@@H]2[C@H](c3ccccc3)Nc3ccccc3[C@@H]21)c1ccc2[nH]cnc2c1 [Example 133, N-((1R,2S)-2-{[(3aR,4R,9bR)-4-Phenyl-2,3,3a,4,5,9b-hexahydro-1H-pyrrolo[3,2-c]quinolin-1-yl]carbonyl}cyclohexyl)-1H-benzimidazole-5-carboxamide]",< 1
11,"O=C(/C=C/c1ncc[nH]1)N[C@@H]1CCCC[C@@H]1C(=O)N1CC[C@@H]2[C@H](c3ccccc3)Nc3ccccc3[C@@H]21 [Example 134, (2E)-3-(1H-Imidazol-2-yl)-N-((1R,2S)-2-{[(3aR,4R,9bR)-4-phenyl-2,3,3a,4,5,9b-hexahydro-1H-pyrrolo[3,2-c]quinolin-1-yl]carbonyl}cyclohexyl)acrylamide]",< 1
12,"O=C(Nc1ccccc1)N[C@@H]1CCCC[C@@H]1C(=O)N1CC[C@@H]2[C@H](c3ccccc3)Nc3ccccc3[C@@H]21 [Example 135, N-phenyl-N′-((1R,2S)-2-{[(3aR,4R,9bR)-4-phenyl-2,3,3a,4,5,9b-hexahydro-1H-pyrrolo[3,2-c]quinolin-1-yl]carbonyl}cyclohexyl)urea]",< 1
13,"O=C(Nc1ccc(Cl)cc1)N[C@@H]1CCCC[C@@H]1C(=O)N1CC[C@@H]2[C@H](c3ccccc3)Nc3ccccc3[C@@H]21 [Example 136, N-(4-Chlorophenyl)-N′-((1R,2S)-2-{[(3aR,4R,9bR)-4-phenyl-2,3,3a,4,5,9b-hexahydro-1H-pyrrolo[3,2-c]quinolin-1-yl]carbonyl}cyclohexyl)urea]",< 10
14,"COc1ccc(NC(=O)N[C@@H]2CCCC[C@@H]2C(=O)N2CC[C@@H]3[C@H](c4ccccc4)Nc4ccccc4[C@@H]32)cc1 [Example 137, N-(4-Methoxyphenyl)-N′-((1R,2S)-2-{[(3aR,4R,9bR)-4-phenyl-2,3,3a,4,5,9b-hexahydro-1H-pyrrolo[3,2-c]quinolin-1-yl]carbonyl}cyclohexyl)urea]",< 1
